Legend:
Human GPR40 [1] = molecular target: T1, Human GPR40 (Homo sapiens, UniProt O14842); test: FLIPR assay, agonist-induced calcium mobilization; format: cell-based; set-up: expressed in transfected cells; conditions: GPR40/CHO NFAT BLA cells
Protocol: (§1) Human and mouse GPR40 stable cell-lines were generated in CHO cells stably expressing NFAT BLA (Beta-lactamase). A human GPR40 stable cell-line was generated in HER cells stably expressing the aequorin expressing reporter. The expression plasmids were transfected using lipofectamine (Life Technologies) following manufacturer's instructions. Stable cell-lines were generated following drug selection.
FLIPR (Fluorimetric Imaging Plate Reader, Molecular Devices) assays were performed to measure agonist-induced calcium mobilization of the stable clones. For the FLIPR assay, one day before assay, GPR40/CHO NFAT BLA cells were seeded into black-wall-clear-bottom 384-well plates (Costar) at 1.4×10e4 cells/20 μL medium/well. The cells were incubated with 20 μl/well of the assay buffer (HMS, 0.1% BSA, 20 mM HEPES, 2.5 mM probenecid, pH 7.4) containing 8 μM fluo-4, AM, 0.08% pluronic acid at room temperature for 100 minutes. Fluorescence output was measured using FLIPR. Compounds were dissolved in DMSO and diluted to desired concentrations with assay buffer. 13.3 μL/well of compound solution was added.

Human GPR40 [2] = molecular target: T1, Human GPR40; test: Inositol Phosphate Turnover (IP1) Assay; format: cell-based; set-up: expressed in transfected cells; host or cells: HEK cells (stably expressing the aequorin reporter); conditions: HEK cells stably expressing human GPR40, CisBio IP-One kit
Protocol: as §1
The assay is performed in 384-well format. HEK cells stably expressing human GPR40 are plated at 15,000 cells per well in growth medium (DMEM/10% fetal calf serum). Cell plates are then incubated 16 hours at 37 degrees in a 5% CO2 incubator.
Measurement of Inositol Phosphate Turnover (IP1) is performed using the CisBio IP-One kit (Part number 62IPAPEB). After the 16 hour incubation, the cells are washed with HEPES buffer and 10 ul of stimulation buffer (prepared as described in the kit) is added to each well. In a separate plate, compounds are diluted in DMSO (400-fold over the final concentration in the assay well) and 25 nl is acoustically transferred to the appropriate well in the assay cell plate. The plates are then incubated for 60 minutes at 37 degrees. 10 ul of detection buffer (also prepared as described in the IP-One kit) is added to each well and the plates are incubated for 60 minutes in the dark. The plates are then read in a Perkin Elmer EnVision or equivalent reader able to measure FRET. Fluorescent ratio of emission at 665 and 620 nm is then converted to IP1 concentration by back calculating from an IP1 standard curve prepared at the time of the assay.

T1 sequence (O14842 whole entry): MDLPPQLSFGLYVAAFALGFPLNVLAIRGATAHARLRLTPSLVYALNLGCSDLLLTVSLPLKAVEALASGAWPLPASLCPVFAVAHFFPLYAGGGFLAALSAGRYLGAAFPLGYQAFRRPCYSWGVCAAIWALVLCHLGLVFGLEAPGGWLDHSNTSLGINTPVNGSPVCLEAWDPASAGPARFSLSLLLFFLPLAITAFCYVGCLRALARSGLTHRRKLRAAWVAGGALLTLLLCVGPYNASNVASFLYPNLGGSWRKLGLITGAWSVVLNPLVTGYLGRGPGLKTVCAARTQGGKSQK

Row | Structure (SMILES) | EC50 (Human GPR40 [1]) [nM] | EC50 (Human GPR40 [2]) [nM]
1 | O=C(O)[C@H]1[C@@H]2Cc3cc(OCc4ccc5c(c4)C(c4ccccc4C(F)(F)F)CCO5)ncc3[C@@H]21 (stereo partly drawn) [Example 48, (5aR,6S,6aS)-3-((4-(2-(trifluoromethyl)phenyl)chroman-6-yl)methoxy)-5,5a,6,6a-tetrahydrocyclopropa[4,5]cyclopenta[1,2-c]pyridine-6-carboxylic acid] | 77.8 | 36.2
2 | CC1(C)CC(c2ccccc2C(F)(F)F)c2cc(COc3cc4c(cn3)[C@H]3[C@@H](C4)[C@@H]3C(=O)O)c(F)cc21 (single isomer, unassigned) [Example 22] | 11.9 | 12.5
3 | O=C(O)[C@H]1[C@@H]2Cc3cc(OCc4ccc5c(c4)C(c4ccccc4C(F)(F)F)CCC5)ncc3[C@@H]21 (single isomer, unassigned) [Example 42] | 17.6 | 9.87
4 | CC1(C)CC(c2cccnc2C(F)(F)F)c2cc(COc3cc4c(cn3)[C@H]3[C@@H](C4)[C@@H]3C(=O)O)c(F)cc21 (stereo partly drawn) [Example 26, (5aR,6S,6aS)-3-((6-fluoro-1,1-dimethyl-3-(2-(trifluoromethyl)pyridin-3-yl)-2,3-dihydro-1H-inden-5-yl)methoxy)-5,5a,6,6a-tetrahydrocyclopropa [4,5]cyclopenta[1,2-c]pyridine-6-carboxylic acid] | 14.1 | 20.8
5 | CC1(C)C=C(c2ccccc2C(F)(F)F)c2cc(COc3cc4c(cn3)[C@H]3[C@@H](C4)[C@@H]3C(=O)O)ccc21 [Example 4] | 13.7 | 18
6 | CC1(C)CC(c2ccc(OCCCS(C)(=O)=O)cc2C(F)(F)F)c2cc(COc3cc4c(cn3)[C@H]3[C@@H](C4)[C@@H]3C(=O)O)c(F)cc21 (stereo partly drawn) [Example 28, (6S)-3-((6-fluoro-1,1-dimethyl-3-(4-(3-(methylsulfonyl)propoxy)-2-(trifluoromethyl)phenyl)-2,3-dihydro-1H-inden-5-yl)methoxy)-5,5a,6,6a-tetrahydrocyclopropa[4,5]cyclopenta[1,2-c]pyridine-6-carboxylic acid] | 6.9 | 41.2
7 | CC1(C)NC(c2ccccc2C(F)(F)F)c2cc(COc3cc4c(cn3)[C@H]3[C@@H](C4)[C@@H]3C(=O)O)ccc21 (stereo partly drawn) [Example 39, (5aR,6S,6aS)-3-((1,1-dimethyl-3-(2-(trifluoromethyl)phenyl)isoindolin-5-yl)methoxy)-5,5a,6,6a-tetrahydrocyclopropa[4,5]cyclopenta[1,2-c]pyridine-6-carboxylic acid] | 13.9 | 15.4
8 | CC1(C)CC(=O)N(c2ccccc2C(F)(F)F)c2cc(COc3cc4c(cn3)[C@H]3[C@@H](C4)[C@@H]3C(=O)O)c(F)cc21 [Example 54, (5aR,6S,6aS)-3-((6-fluoro-4,4-dimethyl-2-oxo-1-(2-(trifluoromethyl)phenyl)-1,2,3,4-tetrahydroquinolin-7-yl)methoxy)-5,5a,6,6a-tetrahydrocyclopropa[4,5] cyclopenta[1,2-c]pyridine-6-carboxylic acid] | 44.9 | 562
9 | O=C(O)[C@H]1[C@@H]2Cc3cc(OCc4ccc5c(c4)N(c4ccccc4)CCCC5)ncc3[C@@H]21 [Example 62, (5aR,6S,6aS)-3-((1-phenyl-2,3,4,5-tetrahydro-1H-benzo[b]azepin-8-yl)methoxy)-5,5a,6,6a-tetrahydrocyclopropa[4,5]cyclopenta[1,2-c]pyridine-6-carboxylic acid] | 14.6 | 42.9
10 | O=C(O)[C@H]1[C@@H]2Cc3cc(OCc4cc5c(cc4F)CCCC5c4ccccc4C(F)(F)F)ncc3[C@@H]21 (stereo partly drawn) [Example 44, (5aR,6S,6aS)-3-((3-fluoro-8-(2-(trifluoro-methyl)phenyl)-5,6,7,8-tetrahydronaphthalen-2-yl)methoxy)-5,5a,6,6a-tetrahydrocyclopropa[4,5] cyclopenta[1,2-c]pyridine-6-carboxylic acid] | 21 | 68
11 | O=C1CC(c2ccccc2C(F)(F)F)c2cc(COc3cc4c(cn3)[C@H]3[C@@H](C4)[C@@H]3C(=O)O)ccc21 (stereo partly drawn) [Example 2, (5aR,6S,6aS)-3-((1-oxo-3-(2-(trifluoromethyl)-phenyl)-2,3-dihydro-1H-inden-5-yl)methoxy)-5,5a,6,6a-tetrahydro-cyclopropa[4,5]cyclopenta [1,2-c]pyridine-6-carboxylic acid] | 50.5 | 47.4
12 | O=C(O)[C@H]1[C@@H]2Cc3cc(OCc4cc5c(cc4F)C(F)(F)CC5c4ccccc4C(F)(F)F)ncc3[C@@H]21 (single isomer, unassigned) [Example 69] | 1.51 | 8.85
13 | O=C(O)[C@H]1[C@@H]2Cc3cc(OCc4ccc5c(c4)C(c4ccccc4C(F)(F)F)OCC5)ncc3[C@@H]21 (stereo partly drawn) [Example 50, (5aR,6S,6aS)-3-((1-(2-(trifluoromethyl)phenyl)isochroman-7-yl)methoxy)-5,5a,6,6a-tetrahydrocyclopropa[4,5]cyclopenta[1,2-c]pyridine-6-carboxylic acid] | 43.2 | 15
14 | CN1C(c2ccccc2C(F)(F)F)c2cc(COc3cc4c(cn3)[C@H]3[C@@H](C4)[C@@H]3C(=O)O)ccc2C1(C)C (stereo partly drawn) [Example 38, (5aR,6S,6aS)-3-((1,1,2-trimethyl-3-(2-(trifluoromethyl)phenyl)isoindolin-5-yl)methoxy)-5,5a,6,6a-tetrahydrocyclopropa[4,5]cyclopenta[1,2-c]pyridine-6-carboxylic acid] | 5.35 | 11.9
15 | CN1CC(C)(C)c2cc(F)c(COc3cc4c(cn3)[C@H]3[C@@H](C4)[C@@H]3C(=O)O)cc2[C@H]1c1ccccc1C(F)(F)F [Example 73, (5aR,6S,6aS)-3-(((S)-6-fluoro-2,4,4-trimethyl-1-(2-(trifluoromethyl)phenyl)-1,2,3,4-tetrahydroisoquinolin-7-yl)methoxy)-5,5a,6,6a-tetrahydrocyclopropa[4,5]cyclopenta[1,2-c]pyridine-6-carboxylic acid] | 18.6 | 21.1
16 | CC1(C)CCC(c2ccccc2C(F)(F)F)c2cc(COc3cc4c(cn3)[C@H]3[C@@H](C4)[C@@H]3C(=O)O)c(F)cc21 (stereo partly drawn) [Example 55, (5aR,6S,6aS)-3-((3-fluoro-5,5-dimethyl-8-(2-(trifluoromethyl)phenyl)-5,6,7,8-tetrahydronaphthalen-2-yl)methoxy)-5,5a,6,6a-tetrahydrocyclopropa[4,5]cyclopenta[1,2-c]pyridine-6-carboxylic acid] | 63.7 | 70.2
17 | CC1(c2ccccc2C(F)(F)F)OCc2ccc(COc3cc4c(cn3)[C@H]3[C@@H](C4)[C@@H]3C(=O)O)cc21 (some centres unmarked) [Example 40] | 16.7 | 431
18 | CC1(C)CN(c2ccccc2C(F)(F)F)c2cc(COc3cc4c(cn3)[C@H]3[C@@H](C4)[C@@H]3C(=O)O)c(F)cc21 [Example 32, (5aR,6S,6aS)-3-((5-fluoro-3,3-dimethyl-1-(2-(trifluoromethyl)phenyl)indolin-6-yl)methoxy)-5,5a,6,6a-tetrahydrocyclopropa[4,5]cyclopenta[1,2-c]pyridine-6-carboxylic acid] | 8.94 | 9.96
19 | O=C(O)[C@H]1[C@@H]2Cc3cc(OCc4ccc5c(C6CC6)cn(-c6ccccc6C(F)(F)F)c5c4)ncc3[C@@H]21 [Example 37, (5aR,6S,6aS)-3-({3-cyclopropyl-1-[2-(trifluoromethyl)phenyl]-1H-indol-6-yl}methoxy)-5,5a,6,6a-tetrahydrocyclopropa[4,5] cyclopenta[1,2-c]pyridine-6-carboxylic acid] | 42.5 | 91.5
20 | Cn1cnc2c([C@H]3CC(C)(C)c4ccc(COc5cc6c(cn5)[C@H]5[C@@H](C6)[C@@H]5C(=O)O)cc43)cccc21 [Example 71] | 13.3 | 205
21 | CC1(C)CNC(c2ccccc2C(F)(F)F)c2cc(COc3cc4c(cn3)[C@H]3[C@@H](C4)[C@@H]3C(=O)O)c(F)cc21 (single isomer, unassigned) [Example 72] | 5.25 | 5.13
22 | CC1(C)CC(c2ccccc2)c2cc(COc3cc4c(cn3)[C@H]3[C@@H](C4)[C@@H]3C(=O)O)ccc21 (stereo partly drawn) [Example 9, (5aR,6S,6aS)-3-((1,1-dimethyl-3-phenyl-2,3-dihydro-1H-inden-5-yl)methoxy)-5,5a,6,6a-tetrahydrocyclopropa[4,5]cyclopenta[1,2-c]pyridine-6-carboxylic acid] | 16.9 | 22.4
